Source: patent US5055480A, “Topically active ocular gem-diacylthiadiazole sulfonamide carbonic anhydrase inhibitors” (Research Corporation Technologies, Inc., priority 1990, dated 1991)

How the values were obtained:
[1] = molecular target: purified carbonic anhydrase (Homo sapiens, UniProt P00918); test: Enzymatic carbonic anhydrase inhibition assay (modification of Maren's micromethod); assay type: biochemical; conditions: relative to acetazolamide control = 100%
Method: CAI efficacy and potency are assessed using an enzymatic method. […] Essentially, a reaction volume of 0.8 mL containing a carbonate/bicarbonate buffer, phenol red, purified carbonic anhydrase, and inhibitor is maintained at 0° and saturated with CO2 by constant bubbling. The time required for acidification to a color change endpoint is monitored as the dependent variable.

[2] = oral administration; cited from earlier work
[3] = topical CAI, lowering of IOP; cited from earlier work

## NS(=O)(=O)c1nnc(NC(CC(=O)O)C(=O)O)s1 (stereo not drawn) [Example 2]
[1]
  Relative CA inhibition Potency: 48%

## NS(=O)(=O)c1nnc(NC(CCC(=O)O)C(=O)O)s1 (stereo not drawn) [Example 3]
[1]
  Relative CA inhibition Potency: 22%

## NS(=O)(=O)c1nnc(NC(CCC(=O)O)CC(=O)O)s1 (stereo not drawn) [Example 5]
[1]
  Relative CA inhibition Potency: 60%

## CC(=O)Nc1nnc(S(N)(=O)=O)s1 [acetazolamide, 2-acetylamino-1,3,4-thiadiazole-5-sulfonamide]
[2]
  effect on IOP: decrease IOP

## Nc1ccc2nc(S(N)(=O)=O)sc2c1 [aminozolamide]
[3]
  efficacy in clinical trial: partially effective

## NS(=O)(=O)c1nnc(NC(CCCC(=O)O)C(=O)O)s1 (stereo not drawn) [Example 4]
[1]
  Relative CA inhibition Potency: 20%
